Like-named read-outs stand apart in the source and are kept apart here.
Experiments:
Mycobacterium 607 [1] = conditions: cup test; standard value; cited from earlier work
Mycobacterium 607 [2] = assay: cup test, antimicrobial activity to Mycobacterium 607; format: cell-based
Excerpt: The endpoint of the hydrolysis reaction can be determined by a reaction in antimicrobial activity of the bleomycin substrate as measured by conventional cup tests using Mycobacterium 607, or by a change in the Rf value during thin layer chromatography.

HeLa (S3 bb cell line) = conditions: third day
Excerpt: wherein the inhibitory effect = [formula] Co: relative number of cell on the first day t3 : relative number of cell on the third day after the addition of a bleomycin (3 mcg/ml in final)
C3 : relative number of cell in negative control on the third day

ICR-JCL male mice = conditions: 10 mice, 10 mg./kg. i.v., 10 days
Excerpt: The mice were bred for 5 weeks after the final administration and were then dissected. The right and left lungs were observed by microscopic examination.

solubility in solvents = format: physicochemical

Row | Molecule | antimicrobial activity to Mycobacterium 607 (Mycobacterium 607 [2]) [μ/mg] | Inhibitory effect (HeLa (S3 bb cell line); 1.5 mcg/ml.) | Inhibitory effect (HeLa (S3 bb cell line); 3 mcg/ml.) | Inhibitory effect (cell culture of Yoshida; 0.625 mcg/ml) | Inhibitory effect (cell culture of Yoshida; 1.25 mcg/ml) | Inhibitory effect (cell culture of Yoshida; 2.5 mcg/ml) | Inhibitory effect (cell culture of Yoshida; 5 mcg/ml) | other results
1 | Cc1c(N)nc([C@H](CC(N)=O)NC[C@H](N)C(N)=O)nc1C(=O)N[C@H](C(=O)N[C@H](C)[C@@H](O)[C@H](C)C(=O)N[C@H](C(=O)NCCc1nc(-c2nc(C(=O)NCCC[S+](C)C)cs2)cs1)[C@@H](C)O)[C@@H](O[C@@H]1O[C@@H](CO)[C@@H](O)[C@H](O)[C@@H]1O[C@H]1O[C@H](CO)[C@@H](O)[C@H](OC(N)=O)[C@@H]1O)c1c[nH]cn1.[Br-] [bleomycin A2, 3-dimethylsulfopropylamino-bleomycin] |  |  |  |  |  |  |  | antimicrobial activity, standard (Mycobacterium 607 [1]): 1000 μ/mg
2 | Cc1c(N)nc([C@H](CC(N)=O)NC[C@H](N)C(N)=O)nc1C(=O)N[C@H](C(=O)N[C@H](C)[C@@H](O)[C@H](C)C(=O)N[C@H](C(=O)NCCc1nc(-c2nc(C(=O)NCCCCN=C(N)N)cs2)cs1)[C@@H](C)O)[C@@H](O[C@@H]1O[C@@H](CO)[C@@H](O)[C@H](O)[C@@H]1O[C@H]1O[C@H](CO)[C@@H](O)[C@H](OC(N)=O)[C@@H]1O)c1cnc[nH]1 [bleomycin B2, 4-guanidinobutylamino-bleomycin] | 3094 | 33 | 64 | 8.6 | 34.0 | 56.0 | 74.9 | antimicrobial activity to Mycobacterium 607 (Mycobacterium 607 [2]; listed as bleomycin): 3015 μ/mg; Total, mice with degree of fibrosis ++ (ICR-JCL male mice; Lung L): 1; Total, mice with degree of fibrosis - (ICR-JCL male mice; Lung L): 5; Total, mice with degree of fibrosis ± (ICR-JCL male mice; Lung L): 1; Total, mice with degree of fibrosis ± (third Total column) (ICR-JCL male mice; Lung L): 3; Total, mice with degree of fibrosis ++ (ICR-JCL male mice; Lung R): 0; Total, mice with degree of fibrosis - (ICR-JCL male mice; Lung R): 4; Total, mice with degree of fibrosis ± (ICR-JCL male mice; Lung R): 3; Total, mice with degree of fibrosis ± (third Total column) (ICR-JCL male mice; Lung R): 3
3 | Cc1c(N)nc(C(CC(N)=O)NCC(N)C(N)=O)nc1C(=O)NC(C(=O)NC(C)C(O)C(C)C(=O)NC(C(=O)NCCc1nc(-c2nc(C(=O)O)cs2)cs1)C(C)O)C(OC1OC(CO)C(O)C(O)C1OC1OC(CO)C(O)C(OC(N)=O)C1O)c1cnc[nH]1 (centres unmarked) [bleomycinic acid] | 159 |  |  |  |  |  |  | 
4 | benzylamino-bleomycin | 3250 | 38 | 73 | 11.1 | 28.2 | 55.4 | 83.5 | Inhibitory effect (HeLa (S3 bb cell line); 6 mcg/ml.): 92
5 | hydrochloride of bleomycinic acid |  |  |  |  |  |  |  | solubility in ethanol, ethyl acetate, acetone and ether (solubility in solvents; ethanol, ethyl acetate, acetone, ether): insoluble; solubility in methanol, acetic acid, dimethylsulfoxide (solubility in solvents; methanol, acetic acid, dimethylsulfoxide): sparingly soluble; solubility in water (solubility in solvents; water): soluble

— patent US3932374A, “Bleomycinic acid and process for preparing thereof” (Zaidan Hojin Biseibutsu Kagaku Kenkyu Kai, priority 1971, dated 1976)
